Experimental findings from paper PMC8230565, “Bisavenathramide Analogues as Nrf2 Inductors and Neuroprotectors in In Vitro Models of Oxidative Stress and Hyperphosphorylation” (Antioxidants, 2021) are described below.

SMILES strings stand for the structures.

One assay has as its system SH-SY5Y cells. Nature of the assay: Neuroprotection against rotenone/oligomycin A in SH-SY5Y cells (MTT). It counts as cell-based. As to conditions: Homo sapiens, 24 h, 1 µM compound, rotenone 30 µM + oligomycin A 10 µM, read-out: % Neuroprotection ± SEM at 1 µM (rotenone/oligomycin A). As for the experimental part:
To evaluate the compounds for their neuroprotective effect in an oxidative stress model, we selected the rotenone (30 μM) and oligomycin A (10 μM) (R/O) cocktail, which disturbs the flow of electrons in the mitochondrial respiratory chain. Similarly, SH-SY5Y cells were preincubated with compounds 3 at 1 μM for 24 h. Then, they were co-incubated in the presence of R/O for a further 24 h, evaluating cell viability by the MTT reduction method.
Thus, the R/O combination constitutes a good model of oxidative stress and neurodegeneration with a mitochondrial origin, and has been broadly employed to evaluate potential hit compounds for the treatment of neurodegenerative diseases. Furthermore, treatment of laboratory animals with rotenone is known to induce many features associated to Parkinson’s disease, such as selective nigrostriatal dopaminergic degeneration and the appearance of α-synuclein cytoplasmic inclusions, which are associated with oxidative damage.

The nature of assay [1]: DPPH radical scavenging assay. The conditions noted are these: for DPPH Scavenging at 0.1 mM, %: 0.1 mM compound; for DPPH Scavenging at 1 mM, %: 1 mM compound. As for the experimental part:
The direct antioxidant effects of compounds 3 were investigated by studying their radical-scavenging effect on the 2,2-diphenyl-1-picrylhydrazyl free radical (DPPH^•). Thus, a 100 μL volume of a methanol solution of each compound was added to 200 μL of 100 μM methanolic DPPH^•, and the solution was kept in the dark at 37 °C for 30 min in a 96-well microliter plate. After this incubation, the absorption at 490 nm of each solution was measured with a microplate reader in order to quantitate its decrease. A blank reading was also taken to calculate the amount of remaining DPPH^•. The radical-scavenging activity exerted by compounds 3 was determined by comparison with a 10 μL of MeOH-treated blank group. Ascorbic acid, a well-known antioxidant acting as a radical scavenger, was used as reference. All samples were analyzed in triplicate. Percent inhibition of the DPPH^• radical was calculated using the equation shown below, where AbsCtrl is the absorbance of the blank group and Abss is the absorbance of the samples containing compounds 3. For each compound showing a percentage of inhibition above 60%, the IC50 value was determined using a dose–response curve obtained from measurements corresponding to at least six concentrations. %Scavenger=AbsCtrl−AbsS/AbsCtrl×100
The radical scavenging activity of all compounds was first studied by the DPPH assay, which measures the ability of antioxidant compounds to donate a hydrogen atom to the violet 2,2-diphenyl-1-picrylhydrazyl radical and transform it into a nonradical species. Thus, it is generally considered to belong to the hydrogen atom transfer (HAT) category of methods for measurement of antioxidant activity.

A further assay has as its system Nrf2. Nature of the assay: Nrf2 induction, luciferase assay in AREc32 cells. It counts as cell-based. As to conditions: Arec32, 24 h, read-out: CD (concentration that doubles luciferase activity). As for the experimental part: AREc32 cells (kindly shared by Dr. Professor Ronald C. Wolf, University of Dundee, Dundee, UK) were grown in Dulbecco’s modified Eagle medium (DMEM) with glutamax, supplemented with 10% fetal bovine serum (FBS), 1% of antibiotics penicillin–streptomycin, and geneticin (0.8 mg/mL, G418) (GIBCO, Madrid, Spain). Cells were harvested in a […] flask with 11 mL of the specified medium, incubated at 37 °C and 5% CO2, and they were transferred to a new flask every 4–6 days, when the confluence was around 80%. Cells were seeded in 96-well white plates (20,000 cells/well) using 100 μL/well. After 24 h, cells were treated with compounds at desired concentrations (1, 5, 10, 15 μM) for 24 h, including tert-butyl hydroquinone (TBHQ, 10 μM) as a positive control. Another 24 h later, luciferase activity was measured through a bioluminescence assay using a “Luciferase assay system” (Promega E1500, Madison, WI, USA), following the protocol given by the provider, and quantifying luminescence in an Orion II microplate luminometer (Berthold, Germany). Measurements were performed by duplicate, and the values were normalized to basal luminescence considered as 1. Nrf2 induction potency was expressed as CD values, i.e., the concentrations required to double the luciferase activity, and are calculated from dose–response curves generated by plotting fold induction of control conditions vs. compound concentration, and fitted by non-linear regression and data interpolated to value 2.
The ability of our compounds to induce Nrf2 was evaluated in the AREc32 cell line, an MCF7 stable clone that is transfected with eight copies of the luciferase reporter gene immediately after the ARE sequence. Therefore, Nrf2 activation and the subsequent transcription of the genes dependent on the ARE element also leads to expression of luciferase, which can be quantitated using a luminescence assay. AREc32 cells were incubated for 24 h with 0.3, 3, 10, 30, and 60 μM concentrations of compounds 3, and a luminescence measurement allowed CD values to be obtained. This parameter characterizes the Nrf2-inducing ability of each compound and represents the concentration required to double the luciferase activity compared to its basal expression.

Consider `COC(=O)C1=C(C)N(CCc2ccc(OC)c(OC)c2)C(=O)/C1=C\c1ccc(OCc2ccccc2Cl)c(OC)c1` [Compound 3n, Methyl (Z)-4-[4-((2-Chlorobenzyl)oxy)-3-methoxybenzylidene]-1-(3,4-dimethoxyphenethyl)-2-methyl-5-oxo-4,5-dihydro-1H-pyrrole-3-carboxylate], for which the % neuroprotection against rotenone/oligomycin A toxicity at 1 µM in the assay on SH-SY5Y cells is 69.4 ± 23.9%. Moreover, in assay [1], the “DPPH Scavenging at 0.1 mM, %” value was found to be 12.7 ± 3.5% and the “DPPH Scavenging at 1 mM, %” value turned out to be 73.6 ± 0.7%. In addition, in assay [1] (n in brackets), the IC50 – broadly, the point on the concentration scale where inhibition reaches its midpoint – is 552 ± 17.4 µM. Besides, the EC (2-fold luciferase activity) with Nrf2 was found to be 14.3 ± 3.89 µM.
As to `COC(=O)C1=C(C)N(CCc2ccccc2)C(=O)/C1=C\c1c[nH]c2ccccc12` [Compound 3o, Methyl (Z)-4-((1H-Indol-3-yl)methylene)-2-methyl-5-oxo-1-phenethyl-4,5-dihydro-1H-pyrrole-3-carboxylate], the % neuroprotection against rotenone/oligomycin A toxicity at 1 µM with SH-SY5Y cells was > 90%. In addition, in assay [1], the “DPPH Scavenging at 0.1 mM, %” value is on record as 12.7 ± 1.9% and the “DPPH Scavenging at 1 mM, %” value was determined as 49.9 ± 3.4%. Further, the EC (2-fold luciferase activity) in the assay with Nrf2 was found to be 36 ± 10.6 µM.
